The kinase profiling compilation of Christmann-Franck et al. (2016)
Values belong to the molecule of their own block, whether it stands above or below them.

Assays:
Assay in all cases: radiometric filter-binding kinase assay, Kinase HotSpot
Conditions in all cases: compound 0.5 µM; ATP 10 µM
[1] = target: JAK2 JH1 JH2 (human) (UniProt O60674)
[2] = target: WNK2 (human) (UniProt Q9Y3S1)
[3] = target: PRKACA (human) (UniProt P17612)
[4] = target: MAPK14 (human) (UniProt Q16539)
[5] = target: GSK3A (human) (UniProt P49840)
[6] = target: DAPK2 (human) (UniProt Q9UIK4)
[7] = target: CLK2 (human) (UniProt P49760)
[8] = target: PLK2 (human) (UniProt Q9NYY3)
[9] = target: MARK1 (human) (UniProt Q9P0L2)
[10] = target: PLK1 (human) (UniProt P53350)
[11] = target: INSRR (human) (UniProt P14616)
[12] = target: AURKA (human) (UniProt O14965)
[13] = target: MAPK13 (human) (UniProt O15264)
[14] = target: ERBB2 (human) (UniProt P04626)
[15] = target: PHKG2 (human) (UniProt P15735)
[16] = target: PIM2 (human) (UniProt Q9P1W9)
[17] = target: FGFR2 (human) (UniProt P21802)
[18] = target: PRKD3 (human) (UniProt O94806)
[19] = target: MAPKAPK5 (human) (UniProt Q8IW41)
[20] = target: PRKCE (human) (UniProt Q02156)
[21] = target: GRK6 (human) (UniProt P43250)
[22] = target: PRKCB1 (human) (UniProt P05771)
[23] = target: TBK1 (human) (UniProt Q9UHD2)
[24] = target: MAPK12 (human) (UniProt P53778)
[25] = target: MARK2 (human) (UniProt Q7KZI7)
[26] = target: EPHB1 (human) (UniProt P54762)
[27] = target: MAPK1 (human) (UniProt P28482)
[28] = target: RPS6KA1 KD1 KD2 (human) (UniProt Q15418)
[29] = target: TYRO3 (human) (UniProt Q06418)
[30] = target: MUSK (human) (UniProt O15146)
[31] = target: FGFR1 (human) (UniProt P11362)
[32] = target: PDGFRB (human) (UniProt P09619)
[33] = target: RPS6KB1 (human) (UniProt P23443)
[34] = target: ULK2 (human) (UniProt Q8IYT8)
[35] = target: INSR (human) (UniProt P06213)
[36] = target: TSSK2 (human) (UniProt Q96PF2)
[37] = target: MAP3K8 (human) (UniProt P41279)
[38] = target: FYN (human) (UniProt P06241)
[39] = target: PAK3 (human) (UniProt O75914)
[40] = target: AURKB (human) (UniProt Q96GD4)
[41] = target: PDPK1 (human) (UniProt O15530)
[42] = target: FLT1 (human) (UniProt P17948)

Sequence of MARK1 (human) (Q9P0L2 whole entry, looked up): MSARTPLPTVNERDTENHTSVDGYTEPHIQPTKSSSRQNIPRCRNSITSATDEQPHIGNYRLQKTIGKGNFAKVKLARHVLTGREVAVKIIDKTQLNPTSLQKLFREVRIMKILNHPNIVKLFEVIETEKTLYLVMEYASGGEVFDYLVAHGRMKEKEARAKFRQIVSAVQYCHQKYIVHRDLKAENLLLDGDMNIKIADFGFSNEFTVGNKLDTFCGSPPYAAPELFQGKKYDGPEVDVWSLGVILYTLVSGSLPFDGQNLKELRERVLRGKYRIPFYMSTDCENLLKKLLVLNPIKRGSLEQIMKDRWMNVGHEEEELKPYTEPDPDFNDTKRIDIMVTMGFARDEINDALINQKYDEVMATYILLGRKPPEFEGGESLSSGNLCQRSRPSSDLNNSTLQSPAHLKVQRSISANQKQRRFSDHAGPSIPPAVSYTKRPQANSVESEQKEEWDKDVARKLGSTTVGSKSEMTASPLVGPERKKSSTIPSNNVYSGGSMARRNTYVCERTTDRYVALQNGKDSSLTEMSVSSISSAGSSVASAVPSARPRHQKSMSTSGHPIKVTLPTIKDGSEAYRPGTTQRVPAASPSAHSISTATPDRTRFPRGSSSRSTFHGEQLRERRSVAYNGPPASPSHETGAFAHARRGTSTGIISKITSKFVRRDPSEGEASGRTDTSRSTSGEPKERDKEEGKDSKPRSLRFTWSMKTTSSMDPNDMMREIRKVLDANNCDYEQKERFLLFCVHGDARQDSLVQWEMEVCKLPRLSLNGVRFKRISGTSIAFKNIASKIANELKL
Sequence of MAPK14 (human) (Q16539 whole entry, looked up): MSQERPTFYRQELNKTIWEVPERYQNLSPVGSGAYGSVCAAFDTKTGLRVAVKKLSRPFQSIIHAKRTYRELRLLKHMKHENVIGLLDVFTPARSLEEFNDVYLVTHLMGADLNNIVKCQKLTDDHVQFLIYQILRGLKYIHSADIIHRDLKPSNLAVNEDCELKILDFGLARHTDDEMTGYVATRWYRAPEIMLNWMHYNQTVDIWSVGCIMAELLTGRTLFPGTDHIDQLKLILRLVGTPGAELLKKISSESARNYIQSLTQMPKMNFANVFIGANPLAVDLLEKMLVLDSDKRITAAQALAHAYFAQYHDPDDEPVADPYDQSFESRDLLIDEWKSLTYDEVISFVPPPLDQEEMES
Sequence of PHKG2 (human) (P15735 whole entry, looked up): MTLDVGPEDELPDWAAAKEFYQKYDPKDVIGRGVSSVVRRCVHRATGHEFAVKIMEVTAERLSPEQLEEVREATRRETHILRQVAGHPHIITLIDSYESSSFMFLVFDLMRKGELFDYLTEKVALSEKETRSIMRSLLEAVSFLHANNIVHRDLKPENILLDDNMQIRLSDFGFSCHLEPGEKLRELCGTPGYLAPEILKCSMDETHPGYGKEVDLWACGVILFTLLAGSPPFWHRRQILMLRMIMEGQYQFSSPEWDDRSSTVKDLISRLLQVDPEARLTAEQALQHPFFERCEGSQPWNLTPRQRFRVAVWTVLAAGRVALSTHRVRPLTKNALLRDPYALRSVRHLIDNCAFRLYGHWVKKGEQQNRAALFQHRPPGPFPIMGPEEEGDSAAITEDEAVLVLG
Sequence of PDGFRB (human) (P09619 whole entry, looked up): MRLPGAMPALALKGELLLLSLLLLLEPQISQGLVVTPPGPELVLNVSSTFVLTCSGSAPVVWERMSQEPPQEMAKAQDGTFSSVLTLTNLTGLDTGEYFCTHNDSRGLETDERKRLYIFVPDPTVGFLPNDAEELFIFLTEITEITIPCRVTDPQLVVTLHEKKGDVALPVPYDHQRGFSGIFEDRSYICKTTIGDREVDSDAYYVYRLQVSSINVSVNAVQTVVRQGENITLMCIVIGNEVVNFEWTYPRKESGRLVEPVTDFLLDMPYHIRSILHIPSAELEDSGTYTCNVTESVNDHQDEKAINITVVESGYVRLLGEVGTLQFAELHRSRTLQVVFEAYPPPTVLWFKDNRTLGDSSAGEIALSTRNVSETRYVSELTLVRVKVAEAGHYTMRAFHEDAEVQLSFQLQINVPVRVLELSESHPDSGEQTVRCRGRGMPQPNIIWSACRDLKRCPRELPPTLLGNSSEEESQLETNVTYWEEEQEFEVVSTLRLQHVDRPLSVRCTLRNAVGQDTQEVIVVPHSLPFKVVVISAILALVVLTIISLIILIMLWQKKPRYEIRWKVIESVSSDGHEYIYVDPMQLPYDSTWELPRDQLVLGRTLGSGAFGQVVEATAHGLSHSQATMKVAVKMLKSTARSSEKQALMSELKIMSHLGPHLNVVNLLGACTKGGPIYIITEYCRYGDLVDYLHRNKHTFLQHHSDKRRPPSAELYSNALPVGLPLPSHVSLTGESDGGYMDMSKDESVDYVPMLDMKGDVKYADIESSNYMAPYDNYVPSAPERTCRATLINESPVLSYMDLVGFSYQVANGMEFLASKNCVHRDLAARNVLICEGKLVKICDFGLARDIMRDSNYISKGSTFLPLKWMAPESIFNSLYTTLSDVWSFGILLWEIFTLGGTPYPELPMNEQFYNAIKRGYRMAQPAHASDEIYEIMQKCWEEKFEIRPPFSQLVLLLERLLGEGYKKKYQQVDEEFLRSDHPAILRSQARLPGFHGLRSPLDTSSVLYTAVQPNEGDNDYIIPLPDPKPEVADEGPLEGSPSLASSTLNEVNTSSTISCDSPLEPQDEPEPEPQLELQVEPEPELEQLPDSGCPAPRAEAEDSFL
Sequence of AURKB (human) (Q96GD4 whole entry, looked up): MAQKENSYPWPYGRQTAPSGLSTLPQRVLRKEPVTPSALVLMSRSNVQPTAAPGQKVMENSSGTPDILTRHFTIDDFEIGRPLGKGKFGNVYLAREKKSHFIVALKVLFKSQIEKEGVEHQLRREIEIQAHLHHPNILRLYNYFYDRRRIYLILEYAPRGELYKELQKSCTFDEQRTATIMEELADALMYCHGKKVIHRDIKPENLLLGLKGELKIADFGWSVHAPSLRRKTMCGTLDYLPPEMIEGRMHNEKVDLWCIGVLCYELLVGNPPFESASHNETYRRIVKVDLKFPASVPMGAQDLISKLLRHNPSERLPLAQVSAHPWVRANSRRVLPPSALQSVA
Sequence of RPS6KB1 (human) (P23443 whole entry, looked up): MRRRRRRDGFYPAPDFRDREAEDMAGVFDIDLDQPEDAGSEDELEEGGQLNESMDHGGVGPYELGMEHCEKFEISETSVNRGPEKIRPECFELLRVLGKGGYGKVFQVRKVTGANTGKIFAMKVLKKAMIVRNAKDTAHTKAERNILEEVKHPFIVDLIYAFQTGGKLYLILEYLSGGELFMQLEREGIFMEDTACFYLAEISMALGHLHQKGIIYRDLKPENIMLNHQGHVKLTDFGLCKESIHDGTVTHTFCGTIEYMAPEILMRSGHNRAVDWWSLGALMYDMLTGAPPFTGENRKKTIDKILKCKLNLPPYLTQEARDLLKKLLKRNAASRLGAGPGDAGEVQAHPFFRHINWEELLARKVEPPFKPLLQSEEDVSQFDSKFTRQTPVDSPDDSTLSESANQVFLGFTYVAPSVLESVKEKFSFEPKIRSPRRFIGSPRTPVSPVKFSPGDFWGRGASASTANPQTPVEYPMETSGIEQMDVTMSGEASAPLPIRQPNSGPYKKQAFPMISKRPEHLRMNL
Sequence of PDPK1 (human) (O15530 whole entry, looked up): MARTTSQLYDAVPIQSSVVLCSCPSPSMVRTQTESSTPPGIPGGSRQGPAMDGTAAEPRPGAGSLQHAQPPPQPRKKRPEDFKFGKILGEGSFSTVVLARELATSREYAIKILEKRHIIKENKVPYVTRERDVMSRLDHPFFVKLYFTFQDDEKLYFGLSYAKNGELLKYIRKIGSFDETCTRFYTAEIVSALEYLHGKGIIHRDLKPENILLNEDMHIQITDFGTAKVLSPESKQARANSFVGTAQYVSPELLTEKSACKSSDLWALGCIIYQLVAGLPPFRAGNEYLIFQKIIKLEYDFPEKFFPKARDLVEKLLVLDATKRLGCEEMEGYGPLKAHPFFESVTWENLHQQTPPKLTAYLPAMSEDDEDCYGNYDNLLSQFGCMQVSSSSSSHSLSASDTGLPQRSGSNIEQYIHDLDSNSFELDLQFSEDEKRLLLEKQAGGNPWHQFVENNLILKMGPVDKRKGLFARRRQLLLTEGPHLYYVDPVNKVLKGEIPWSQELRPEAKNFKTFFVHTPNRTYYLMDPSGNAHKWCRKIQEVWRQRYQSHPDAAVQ
Sequence of AURKA (human) (O14965 whole entry, looked up): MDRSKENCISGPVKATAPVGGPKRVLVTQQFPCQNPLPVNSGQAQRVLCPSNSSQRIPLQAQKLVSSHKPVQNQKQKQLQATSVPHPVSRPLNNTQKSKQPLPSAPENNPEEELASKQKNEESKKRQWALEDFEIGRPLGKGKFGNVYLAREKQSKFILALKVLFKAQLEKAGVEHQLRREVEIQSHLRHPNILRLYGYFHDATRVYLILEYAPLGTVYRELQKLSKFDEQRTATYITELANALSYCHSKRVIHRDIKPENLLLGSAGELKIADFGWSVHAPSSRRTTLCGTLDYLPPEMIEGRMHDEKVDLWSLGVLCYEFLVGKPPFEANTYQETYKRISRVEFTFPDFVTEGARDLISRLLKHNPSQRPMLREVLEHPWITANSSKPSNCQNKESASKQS
Sequence of DAPK2 (human) (Q9UIK4 whole entry, looked up): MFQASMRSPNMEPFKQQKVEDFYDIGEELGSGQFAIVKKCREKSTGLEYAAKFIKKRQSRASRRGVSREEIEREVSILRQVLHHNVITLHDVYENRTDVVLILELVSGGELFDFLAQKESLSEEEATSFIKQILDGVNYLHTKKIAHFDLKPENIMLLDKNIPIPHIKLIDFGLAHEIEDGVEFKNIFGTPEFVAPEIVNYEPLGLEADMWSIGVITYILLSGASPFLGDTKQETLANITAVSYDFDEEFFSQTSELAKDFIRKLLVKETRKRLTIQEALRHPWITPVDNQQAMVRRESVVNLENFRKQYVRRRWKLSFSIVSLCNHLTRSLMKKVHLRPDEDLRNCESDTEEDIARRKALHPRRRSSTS

SMILES: CNc1cc2c(Nc3cccc(Br)c3)ncnc2cn1
residual activity [1]: 82.1% | residual activity [2]: 114% | residual activity [3]: 104% | residual activity [4]: 90% | residual activity [5]: 95.9% | residual activity [6]: 136% | residual activity [7]: 88.3% | residual activity [8]: 97.5% | residual activity [9]: 96.1% | residual activity [10]: 93.5% | residual activity [11]: 98.2% | residual activity [12]: 85.1% | residual activity [13]: 102% | residual activity [14]: 28.9% | residual activity [15]: 113% | residual activity [16]: 102% | residual activity [17]: 96.3% | residual activity [18]: 78.5% | residual activity [19]: 99.3% | residual activity [20]: 99.8% | residual activity [21]: 91.1% | residual activity [22]: 95.3% | residual activity [23]: 94.5% | residual activity [24]: 93.6% | residual activity [25]: 90.9% | residual activity [26]: 90.2% | residual activity [27]: 88.6% | residual activity [28]: 90.9% | residual activity [29]: 98.8% | residual activity [30]: 81.3% | residual activity [31]: 96.5% | residual activity [32]: 86.4% | residual activity [33]: 97.4% | residual activity [34]: 119% | residual activity [35]: 100% | residual activity [36]: 87.2% | residual activity [37]: 90.2% | residual activity [38]: 91.7% | residual activity [39]: 98.8% | residual activity [40]: 76.3% | residual activity [41]: 97.7% | residual activity [42]: 83.5%

SMILES: CC[n+]1c(/C=C/N(C)c2ccccc2)n(-c2ccccc2)c2ccc(-c3nc4ccccc4s3)cc21
residual activity [1]: 98.8% | residual activity [2]: 112% | residual activity [3]: 103% | residual activity [4]: 94.9% | residual activity [5]: 103% | residual activity [6]: 94.3% | residual activity [7]: 98.4% | residual activity [8]: 93.1% | residual activity [9]: 104% | residual activity [10]: 110% | residual activity [11]: 101% | residual activity [12]: 88.1% | residual activity [13]: 102% | residual activity [14]: 92% | residual activity [15]: 102% | residual activity [16]: 117% | residual activity [17]: 100% | residual activity [18]: 97.4% | residual activity [19]: 96.8% | residual activity [20]: 97.7% | residual activity [21]: 98.9% | residual activity [22]: 102% | residual activity [23]: 95.7% | residual activity [24]: 105% | residual activity [25]: 91.6% | residual activity [26]: 104% | residual activity [27]: 112% | residual activity [28]: 104% | residual activity [29]: 103% | residual activity [30]: 94.7% | residual activity [31]: 97.4% | residual activity [32]: 102% | residual activity [33]: 96.8% | residual activity [34]: 109% | residual activity [35]: 94% | residual activity [36]: 98.4% | residual activity [37]: 92% | residual activity [38]: 99.2% | residual activity [39]: 109% | residual activity [40]: 93.9% | residual activity [41]: 103% | residual activity [42]: 94.1%

residual activity [1]: 40.6% | residual activity [2]: 112% | residual activity [3]: 100% | residual activity [4]: 86.2% | residual activity [5]: 98.4% | residual activity [6]: 111% | residual activity [7]: 5.1% | residual activity [8]: 96.4% | residual activity [9]: 62.5% | residual activity [10]: 96.9% | residual activity [11]: 93% | residual activity [12]: 27.6% | residual activity [13]: 100% | residual activity [14]: 91.5% | residual activity [15]: 96% | residual activity [16]: 103% | residual activity [17]: 74.1% | residual activity [18]: 42.7% | residual activity [19]: 77.6% | residual activity [20]: 99.1% | residual activity [21]: 89.7% | residual activity [22]: 94% | residual activity [23]: 60.4% | residual activity [24]: 99.8% | residual activity [25]: 44.1% | residual activity [26]: 84.5% | residual activity [27]: 85.1% | residual activity [28]: 54.4% | residual activity [29]: 34.7% | residual activity [30]: 84.2% | residual activity [31]: 80% | residual activity [32]: 76.4% | residual activity [33]: 83.7% | residual activity [34]: 16.8% | residual activity [35]: 98.8% | residual activity [36]: 96.3% | residual activity [37]: 82.9% | residual activity [38]: 67.1% | residual activity [39]: 93.5% | residual activity [40]: 19.2% | residual activity [41]: 114% | residual activity [42]: 74.7%
SMILES: Cc1[nH]c(/C=C2\C(=O)Nc3ccc(S(=O)(=O)N(C)c4cccc(Cl)c4)cc32)c(C)c1C(=O)N1CCN(C)CC1
